“Also recorded” adds a separate entry of the source.
Legend:
[1] = tested on: Wistar-Kyoto rats (WKY); experiment: Hemodynamic measurements in normotensive Wistar-Kyoto rats; type: in vivo, rat
Protocol: (§1) Anandamide, the CB1 receptor antagonist AM251, and the anandamide transport inhibitors AM404 and OMDM-2 were obtained from Tocris; and the CB1 antagonist SR141716 and the CB2 antagonist SR144528 were from the National Institute on Drug Abuse drug supply program. Drugs were mixed in corn oil and sonicated for 5 minutes at 4° C. The mixture was added to 4 parts of Pluronic F68 (Sigma-Aldrich) solution (40 mg/mL) dissolved in water and sonicated to obtain a stable suspension for bolus intravenous injections.
(§2) Rats were obtained from Harlan (Indianapolis, Ind.). Male, 8- to 10-month-old SHR, age-matched male Wistar-Kyoto rats (WKY), and 8- to 10-week-old male Sprague-Dawley rats were maintained on standard rat chow and water ad libitum. Dahl salt-sensitive and salt-resistant rats (male, Rapp strain, 6 weeks old) were maintained for 4 weeks on rat chow containing either 0.12% or 8% NaCl. Systolic blood pressure monitored daily by the tail-cuff technique was 120±11 mm Hg (salt-sensitive, 0.12% NaCl), 180±14 mm Hg (salt-sensitive, 8% NaCl), and 118±9 mm Hg (salt-resistant, 8% NaCl). Hypertension was induced in Sprague-Dawley rats by chronic infusion of angiotensin II (60 ng/min) via an osmotic minipump (Imig et al. Hypertension 2002; 39: 690-694. Rats were used 10 to 12 days after implantation of the minipump.
(§3) For hemodynamic measurements, rats were anesthetized with pentobarbital sodium (60 mg/kg IP) and tracheotomized to facilitate breathing. Animals were placed on controlled heating pads, and core temperature, measured via a rectal probe, was maintained at 37° C. A microtip pressure-volume catheter (SPR-838; Millar Instruments) was inserted into the right carotid artery and advanced into the left ventricle (LV) under pressure control as described previously. Polyethylene cannulae (P50) were inserted into the right femoral artery and vein for measurement of mean arterial pressure (MAP) and administration of drugs, respectively. […] Heart rate, maximal LV systolic pressure, MAP, and maximal slope of systolic pressure increment (+dP/dt) were computed with a cardiac pressure-volume analysis program (PVAN2.9; Millar). Cardiac output calculated and corrected according to in vitro and in vivo volume calibrations with PVAN2.918 was normalized to body weight (cardiac index [CI]). Total peripheral resistance index (TPRI) was calculated by the equation TPRI=MAP/CI. In 3 experiments, drugs were microinjected into the fourth cerebral ventricle as described by Ramirez-Gonzalez et al. Circ Res. 1983; 53, 150-157.
(§4) Time-dependent variables were analyzed by ANOVA followed by the Dunnett post hoc test. In other cases, the Student t test was used, as appropriate. Values with P<0.05 were considered statistically significant.

[2] = tested on: spontaneously hypertensive rat (SHR); experiment: Hemodynamic measurements in anesthetized spontaneously hypertensive rats; type: in vivo; conditions: for change in MAP: n=4
Protocol: as §1
as §2, with “Systolic blood pressure monitored daily by the tail-cuff technique was 120±11 mm Hg (salt-sensitive, 0.12% NaCl), 180±14 mm Hg (salt-sensitive, 8% NaCl), and 118±9 mm Hg (salt-resistant, 8% NaCl).” left out
as §3, §4

[3] = tested on: male DIO mice (wild-type C57Bl6/J on high-fat diet); experiment: Intraperitoneal glucose tolerance test in wild-type mice with diet-induced obesity; type: in vivo; conditions: URB597 10 mg/kg i.p., 60 min before glucose 1.5 g/kg i.p., 10 mg/kg
Protocol: (§5) Male C57Bl6/J mice, wild-type or liver-specific CB1 receptor knockout, were kept on a diet containing 60% of calories as fat (Research Diets Inc) for 14 weeks, by which time both strains have become fat due to increased adipose mass. […] Sixty minutes later the mice received 1.5 g/kg glucose i.p. and blood glucose levels were monitored for 2 hours.

[4] = tested on: angiotensin II-treated hypertensive rats; experiment: Blood pressure in angiotensin II-treated hypertensive rats; type: in vivo, rat
From the text: as §2
(§6) For hemodynamic measurements, rats were anesthetized with pentobarbital sodium (60 mg/kg IP) and tracheotomized to facilitate breathing. Animals were placed on controlled heating pads, and core temperature, measured via a rectal probe, was maintained at 37° C. […] Cardiac output calculated and corrected according to in vitro and in vivo volume calibrations with PVAN2.918 was normalized to body weight (cardiac index [CI]). Total peripheral resistance index (TPRI) was calculated by the equation TPRI=MAP/CI. […]

[5] = tested on: normotensive controls (Sprague-Dawley rats); experiment: Blood pressure in normotensive controls of angiotensin II-treated rats; type: in vivo, rat; conditions: URB597, normotensive controls of angiotensin II-treated rats
From the text: as §2, §6

[6] = Non-fasting blood glucose in SHR and WKY; conditions: URB597 10 mg/kg i.p., n=4
[7] = tested on: liver-specific CB1 receptor knockout mice; experiment: Intraperitoneal glucose tolerance test in liver-specific CB1 receptor knockout mice on high-fat diet; type: in vivo; conditions: URB597 10 mg/kg i.p., liver-specific CB1 knockout mice on HFD
Protocol: as §5

[8] = biological target: T1, FAAH (Mus musculus, UniProt O08914); experiment: FAAH activity in brain and liver homogenates following in vivo administration; parameters: species or system mice; conditions: mouse
T1 construct: the brain and liver removed, and tissue homogenates prepared as described above; from tissue; host or cells: mouse brain and liver homogenates after in vivo dosing
T1 sequence (O08914 1-579): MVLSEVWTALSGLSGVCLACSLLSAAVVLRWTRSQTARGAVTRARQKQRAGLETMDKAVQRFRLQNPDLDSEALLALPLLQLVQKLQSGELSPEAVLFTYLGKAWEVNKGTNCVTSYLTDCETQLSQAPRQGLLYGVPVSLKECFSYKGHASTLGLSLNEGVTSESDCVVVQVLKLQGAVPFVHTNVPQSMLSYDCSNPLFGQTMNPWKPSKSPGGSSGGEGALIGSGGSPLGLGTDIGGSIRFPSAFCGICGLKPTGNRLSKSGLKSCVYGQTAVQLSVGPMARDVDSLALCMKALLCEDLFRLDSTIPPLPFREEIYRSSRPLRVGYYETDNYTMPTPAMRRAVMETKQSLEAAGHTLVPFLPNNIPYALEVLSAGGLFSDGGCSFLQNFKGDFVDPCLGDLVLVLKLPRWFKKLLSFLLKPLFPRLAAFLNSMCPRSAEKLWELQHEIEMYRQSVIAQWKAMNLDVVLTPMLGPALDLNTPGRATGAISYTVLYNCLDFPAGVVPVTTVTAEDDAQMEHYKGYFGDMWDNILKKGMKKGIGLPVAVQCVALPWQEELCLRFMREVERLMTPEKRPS
Protocol: For the experiments illustrated in FIG. 3, FAAH activity was assessed through a different method not requiring TLC separation, as described by Jonsson et al: Br. J. Pharmacol. 133:1263-1275, 1997. […] The mice were sacrificed one hour later, the brain and liver removed, and tissue homogenates prepared as described above. [^3H]Anandamide labeled on the ethanolamide moiety was added to the homogenate and incubated at 37° C. for 10 min. The homogenate was then extracted twice with chloroform:methanol 1:1 and the radioactivity in the aqueous phase (containing the released ethanolamide) was counted.

## CCCCC/C=C\C/C=C\C/C=C\C/C=C\CCCC(=O)Nc1ccc(O)cc1 [AM404]
[1]; AM404 10 mg/kg
  change in MAP: no significant change
[2]; AM404 10 mg/kg, SHR
  change in MAP: −63±19 mm Hg

## CCCCCCC(C)(C)c1cc(O)c2c(c1)OC(C)(C)[C@@H]1CC=C(CO)C[C@@H]21 [HU210]
[1]; n=6
  hypotensive EC50: 5.9 µg/kg
  maximal hypotensive effect: −39±14 mm Hg
[2]; SHR, n=6
  hypotensive EC50: 1.5 µg/kg
  maximal hypotensive effect: −108±11 mm Hg

## CCCCCCCC/C=C\CCCCCCCC(=O)N[C@@H](CO)Cc1ccc(O)cc1 [OMDM-2]
[1]; OMDM-2 5 mg/kg
  change in MAP: no significant change
[2]; OMDM-2 5 mg/kg, SHR
  change in MAP: −39±10 mm Hg

## NC(=O)c1cccc(-c2cccc(OC(=O)NC3CCCCC3)c2)c1 [URB597]
[3]
  glucose intolerance: marked increase in their glucose intolerance; also recorded: increases glucose intolerance
[4]; URB597, angiotensin II-treated hypertensive rats
  blood pressure: lowered blood pressure
[1]; URB597 10 mg/kg IV
  hemodynamic effects: no detectable hemodynamic effects
[5]
  blood pressure: not in their normotensive controls
[6]; SHR, from 104.0±7.4
  non-fasting blood glucose after treatment: 144.0 ± 9.6 mg/dL
[6]; WKY, from 90.0±7.2
  non-fasting blood glucose after treatment: 135.3 ± 12.9 mg/dL
[2]; Rattus norvegicus, dose-response studies, n=3, read-out: hypotensive ED50
  ED50: 1.7 mg/kg
[2]; SHR
  hypotensive response after pretreatment with the VR1 antagonist capsazepine: not affected by capsazepine pretreatment
[2]; URB597 10 mg/kg IV, SHR
  LV systolic pressure: decreased
  TPRI: decreased
  arterial pressure: decreased arterial pressure to normotensive levels
  dP/dt: decreased
[2]; URB597, SHR
  cardiac contractility (pressure/volume relationship): decrease in cardiac contractility
[2]; hypertensive animals, CB1 antagonists
  effects of URB597 in the hypertensive animals in the presence of CB1 antagonists: could be prevented by CB1 antagonists
[7]
  glucose tolerance: failed to affect glucose tolerance
[8]; in vivo, 10 mg/kg
  inhibition of FAAH activity in the liver: significantly inhibits FAAH activity in the liver
  inhibition of FAAH in brain: near complete inhibition
[8]; read-out: inhibition of FAAH in liver
  inhibition at 10 mg/kg: > 90%

## CCCCC/C=C\C/C=C\C/C=C\C/C=C\CCCC(=O)NCCO [anandamide]
[4]; rats with angiotensin II-induced hypertension
  anandamide-induced hypotension: potentiated
[1]; anandamide 10 mg/kg
  blood pressure: modest and short-lasting
  cardiac contractility: modest and short-lasting
  duration of decrease in blood pressure and cardiac contractility: < 5 min
  other hemodynamic changes: without other hemodynamic changes
[2]; SHR
  hypotensive response after pretreatment with the VR1 antagonist capsazepine: not affected by capsazepine pretreatment
[2]; anandamide 10 mg/kg, SHR
  CI: decreases
  TPRI: decreases
  blood pressure: sustained decrease in blood pressure to near normotensive levels
  cardiac contractility (dP/dt, LV systolic pressure): decreases
  heart rate: decreases
